From patent US12564547B2, “Compositions, formulations, and methods for skin treatment” (Oddity Labs, LLC, priority 2022, dated 2026)

Assays:
Format in all cases: cell-based
human dermal fibroblasts = assay: Human dermal fibroblast cells (hDFC) proliferation, cell viability assay (CellTiter-Glo, manual cell counting); conditions: hDFCs proliferation; control is DMSO
TK.6 lymphoblasts = assay: In vitro genotoxicity: TK.6 micronuclei assay (FIG. 5B) and SOS chromotest (FIG. 5C); conditions: TK.6 micronuclei assay without S9, 24 hr, and SOS chromotest; across a concentration range
Description: (§1) The safety/toxicology profiles of a compound or salt of the present disclosure was evaluated via a series of in vitro genotoxicity assays, including the SOS-chromotest to determine bacterial genotoxicity, and the TK.6 micronucleus assay to determine chromosomal damage and forward mutations. Standard reactive oxygen species (ROS) and caspase 3/7 assay were conducted to determine general cellular toxicity. Moreover, a series of sensitization tests were conducted to predict any potential skin sensitivity. These include the direct peptide reactivity assay to evaluate haptenization, the KeratinoSens reporter assay to determine any potential sensitivity via the activation of a cytoprotective pathway, and an immunological assay using human immature monocyte-derived dendritic cells to evaluate any potential immunogenicity.
TK.6 lymphoblasts are a cell line used for gene mutation analyses. TK.6 lymphoblasts are heterozygous for the thymidine kinase gene (TK) and enable the detection of forward mutations and chromosomal damage, which manifests as micronuclei. TK.6 lymphoblasts are detectable via flow cytometry. TK.6 cells were dosed with the compounds or a vehicle control (0.1% v/v DMSO) and cultured without S9 metabolic activation for 24 hr. FIG. 5A-FIG. 5E show the results of in vitro genotoxicity assay and the TK.6 micronucleus assay. FIG. 5A are example plots of TK.6 cells treated with compound V-1. Methyl methanesulfonate, a genotoxic, alkylating agent was used as a positive control for micronuclei detection. […] The SOS chromotest is a bacteria-based test for genotoxicity. […] Cells were treated with either the compounds or vehicle control containing correspondingly % v/v-matched amounts of DMSO. High represents 10 µg/mL while low represents 1 μg/mL. Tested compounds elicited no or minor caspase 3/7 activation at low and high concentrations. In FIG. 5A-FIG. 5E, data represents mean±s.d. and representative of at least 2 experimental replicates.

Nrf2-ARE pathway = assay: KeratinoSens Nrf2-ARE reporter assay (ARE-luciferase activity); conditions: across a concentration range
Description: as §1
The Nrf2-ARE pathway is a master regulator of cytoprotective responses to oxidative stress, and is an early indicator of skin sensitization. Nrf2 (nuclear factor erythroid 2-related factor) is a transcription factor that binds to antioxidant responsive elements (ARE). By fusing ARE to the light-producing luciferase gene, a KeratinoSens Nrf2-ARE reporter assay was constructed whereby luciferase signal is directly correlated to Nrf2-ARE pathway activation. […] FIG. 6B describes an in vitro dendritic cell sensitization test. Dendritic cell activation is widely-associated with downstream immunogenicity. CD14+ cells from human donor peripheral mononuclear cells were harvested and differentiated them into immature monocyte-derived DCs using granulocyte-macrophage colony-stimulating factor (GM-CSF) and interleukin-4 (IL-4), then treated with the lead compounds. Killed E. Coli and TNF-α were used as positive controls. FIG. 6C-FIG. 6E are example plots showing change in HLA-DR expression. Expression of CD80 (FIG. 6C), PDL-1 (FIG. 6D), and CD141 (FIG. 6E) as quantified via mean fluorescence intensity (MFI) following dosing with example compounds. […] In FIG. 6A-FIG. 6E, data represents mean±s.d. and representative of at least 2 experimental replicates.

| Compound | Activity (Percent Increase Proliferation of hFDPCs (%)) (human dermal fibroblasts) | genotoxic transformation potential (TK.6 lymphoblasts) | skin sensitizing potential (Nrf2-ARE pathway activation) (Nrf2-ARE pathway) |
| --- | --- | --- | --- |
| Cc1[nH]c2ccc(C(=O)NCC3CCCO3)cc2c1C (stereo not drawn) [IV-1, 2,3-dimethyl-N-(oxolan-2-ylmethyl)-1H-indole-5-carboxamide] | C (increased proliferation of hFDPCs equals to or larger than 4% and less than 8%) | mild genotoxicity at higher concentrations | exhibited sensitizing potential |
| COc1ccc(CCCc2nc3ccccc3[nH]2)cc1 [VII-34, 2-[3-(4-methoxyphenyl)propyl]-1H-benzimidazole] | D (increased proliferation of hFDPCs equals to or larger than 8%) |  | did not exhibit apparent Nrf2-ARE pathway activation |
| CN(C)C(=O)COC(=O)c1ccc2[nH]c3c(c2c1)CCCC3 [IV-2, [2-(dimethylamino)-2-oxoethyl] 6,7,8,9-tetrahydro-5H-carbazole-3-carboxylate] | B (increased proliferation of hFDPCs equals to or larger than 1% and less than 4%) | mild genotoxicity at higher concentrations | did not exhibit apparent Nrf2-ARE pathway activation |
| COc1ccc(CN2CCN(C(=O)CCn3ccnc3)CC2=O)cc1 [VII-32, 4-(3-imidazol-1-ylpropanoyl)-1-[(4-methoxyphenyl)methyl]piperazin-2-one] | A (increased proliferation of hFDPCs of less than 1%) |  |  |
| CCN(CC)CC(=O)NC(C)c1ccccc1 (stereo not drawn) [II-3, 2-(diethylamino)-N-(1-phenylethyl)acetamide] | A (increased proliferation of hFDPCs of less than 1%) |  |  |
| COCCNC(=O)c1ccc2[nH]c3c(c2c1)CCCC3 [IV-3, N-(2-methoxyethyl)-6,7,8,9-tetrahydro-5H-carbazole-3-carboxamide] | D (increased proliferation of hFDPCs equals to or larger than 8%) |  |  |
| CN(C)CCn1c(=O)[nH]c2ccccc2c1=O [V-3, 3-[2-(dimethylamino)ethyl]-1H-quinazoline-2,4-dione] | A (increased proliferation of hFDPCs of less than 1%) |  |  |
| COc1ccc(NC(=O)C(=O)NCCCn2ccnc2)cc1 [III-1, N-(3-imidazol-1-ylpropyl)-N′-(4-methoxyphenyl)oxamide] | D (increased proliferation of hFDPCs equals to or larger than 8%) | mild genotoxicity at higher concentrations | did not exhibit apparent Nrf2-ARE pathway activation |
| Cc1ccc(-c2nnc(SCC(=O)N3CCCC3)n2N)cc1 [I-3, 2-[[4-amino-5-(4-methylphenyl)-1,2,4-triazol-3-yl]sulfanyl]-1-pyrrolidin-1-ylethanone] | C (increased proliferation of hFDPCs equals to or larger than 4% and less than 8%) |  |  |
| Cn1c(SCC(=O)N2CCCCCC2)nnc1-c1ccccc1 [I-1, 1-(azepan-1-yl)-2-[(4-methyl-5-phenyl-1,2,4-triazol-3-yl)sulfanyl]ethanone] | C (increased proliferation of hFDPCs equals to or larger than 4% and less than 8%) | mild genotoxicity at higher concentrations | did not exhibit apparent Nrf2-ARE pathway activation |
| CC(C)n1cnnc1 [VII-27, 4-propan-2-yl-1,2,4-triazole] | D (increased proliferation of hFDPCs equals to or larger than 8%) |  |  |
| CN(C)c1ccccc1CN1CCCCC1C(=O)O (stereo not drawn) [VII-16, 1-[[2-(dimethylamino)phenyl]methyl]piperidine-2-carboxylic acid] | D (increased proliferation of hFDPCs equals to or larger than 8%) |  |  |
| Cn1nnnc1SCC(=O)N1CCCCC1 [VII-37, 2-(1-methyltetrazol-5-yl)sulfanyl-1-piperidin-1-ylethanone] | C (increased proliferation of hFDPCs equals to or larger than 4% and less than 8%) |  |  |
| CCOCCCn1c(=O)[nH]c2ccccc2c1=O [V-1, 3-(3-ethoxypropyl)-1H-quinazoline-2,4-dione] | C (increased proliferation of hFDPCs equals to or larger than 4% and less than 8%) | did not exhibit any genotoxic transformation potential | did not exhibit apparent Nrf2-ARE pathway activation |
| Cn1c(SCC(=O)N2CCCCC2)nnc1-c1ccccc1 [I-7, 2-[(4-methyl-5-phenyl-1,2,4-triazol-3-yl)sulfanyl]-1-piperidin-1-ylethanone] | B (increased proliferation of hFDPCs equals to or larger than 1% and less than 4%) |  |  |
| CC(O)CNC(=O)c1ccc2[nH]c3c(c2c1)CCCC3 (stereo not drawn) [IV-4, N-(2-hydroxypropyl)-6,7,8,9-tetrahydro-5H-carbazole-3-carboxamide] | C (increased proliferation of hFDPCs equals to or larger than 4% and less than 8%) |  |  |
| CC1(C)CC(C(N)=O)C(C)(C)N1 (stereo not drawn) [VII-17, 2,2,5,5-tetramethylpyrrolidine-3-carboxamide] | D (increased proliferation of hFDPCs equals to or larger than 8%) |  |  |
| CCCCC(=O)NCCc1ccc(OC)cc1 [II-1, N-[2-(4-methoxyphenyl)ethyl]pentanamide] | C (increased proliferation of hFDPCs equals to or larger than 4% and less than 8%) | mild genotoxicity at higher concentrations | did not exhibit apparent Nrf2-ARE pathway activation |
| CC(N)c1nnnn1C (stereo not drawn) [VII-15, 1-(1-methyltetrazol-5-yl)ethanamine] | D (increased proliferation of hFDPCs equals to or larger than 8%) |  |  |
| NN1CCNCC1 [VII-2, piperazin-1-amine] | D (increased proliferation of hFDPCs equals to or larger than 8%) |  |  |
| O=C(CSc1nnnn1-c1ccc(O)cc1)N1CCCCC1 [VII-36, 2-[1-(4-hydroxyphenyl)tetrazol-5-yl]sulfanyl-1-piperidin-1-ylethanone] | D (increased proliferation of hFDPCs equals to or larger than 8%) |  |  |
| O[C@H]1CCNC[C@]12CCCNC2 [VII-7, (5S,6R)-2,8-diazaspiro[5.5]undecan-5-ol] | D (increased proliferation of hFDPCs equals to or larger than 8%) |  |  |
| Cc1c(Br)c([N+](=O)[O-])nn1CC(=O)N1CCCCCC1 [VII-12, 1-(azepan-1-yl)-2-(4-bromo-5-methyl-3-nitropyrazol-1-yl)ethanone] | C (increased proliferation of hFDPCs equals to or larger than 4% and less than 8%) |  |  |
